# Data as given in patent publication US8450357B2, “Compositions comprising an aryl pyrazole and/or a formamidine, methods and uses thereof” (Merial Limited, priority 2008, dated 2013).
# Like-named read-outs stand apart in the source and are kept apart here.
# Tests used:
# [1] = system: adult Rhipicephalus sanguineus; assay: Tick motility petri dish assay with imaging system, amitraz and fipronil; format: in vivo; conditions: for Geometric Mean of movement values for stimulated ticks: amitraz 0.32 ug/cm^2, fipronil serial dilutions 1.3-0.005 ug/cm^2; for motility of ticks over time: compound alone, compared to solvent control treated ticks
# From the text: An imaging system was used for the automated analysis of tick motility in response to amitraz and fipronil treatments to remove the subjective interpretation of manual test evaluation. The study was designed to evaluate the affect of amitraz and fipronil alone and in combination, as compared to a control, on the motility of ticks over time.
# The motility of adult Rhipicephalus sanguineus was compared for amitraz-only, fipronil-only and the combination of fipronil and amitraz in a petri dish assay using the imaging system. The assay was run using a fixed dilution of amitraz (0.32 ug/cm^2), with serial dilutions of fipronil (1.3, 0.33, 0.08, 0.02, or 0.005 ug/cm^2) alone and in combination with the fixed dilution of amitraz. Six independent replications were conducted.
# A plate holding four petri dishes was custom made for the imaging system. At each time point the plate holding four petri dishes was placed on the imaging system and evaluated for motility. The set up of the plate for each evaluation is illustrated below in Table 21.
# For Dish A1, a volume of 625 μL of ethanol was used to treat the tops and 625 μL to treat the bottoms of the petri dish. All solutions were formulated in 100% ethanol. For Dish A2, a volume of 125 μL of the 25 ppm amitraz solution was used to treat the tops and 125 μL to treat the bottoms of the petri dish. For Dish B1, the top and bottom portions of the petri dishes were each treated with 500 μL of the 25 ppm solution of fipronil (serially diluted for each Plate 1-5) and 125 μL of the 25 ppm solution of amitraz. And for Dish B2, each of the top and bottom portions of the petri dishes were treated with 500 μL of the 25 ppm solution of fipronil (serially diluted for each Plate 1-5). After application of the corresponding solution to the petri dishes, the petri dishes were left open under a fan and allowed to dry for 1 hour. After drying, the dishes were infested with 10 adult Rhipicephalus sanguineus (supplied by Ecto Services, Inc. Henderson, N.C.). The ticks were left undisturbed for 1 hour before evaluation in the imaging system. Between evaluations ticks were maintained at approximately 21° C. and 60% RH.
# After the initial hour, each Plate 1-5 was sequentially placed into the imaging system for evaluation. Image processing calculates the change in movement of the ticks between each image. The value generated is equal to the movement in each petri dish during the image time. The ticks in each individual petri dish were then stimulated to move by breathing/exhaling into the plate. After stimulation, the plates were placed back into the imaging system for another evaluation to determine if the treatment affected the tick's ability to move. Image capture was repeated as in the pre-stimulated evaluation.
# Evaluations were made at 1, 4, 18, and 24 hours post infest (hpi) for 3 trials. For 3 trials the 4 hour evaluation was not done and for 3 trials the third evaluation was done at 21 to 22 hours. Raw data values were exported from the imaging system and comparative analysis of treatments over time was conducted.
# [2] = system: adult Rhipicephalus sanguineus ticks; assay: whole plant or invertebrate
# Method: Fipronil was dissolved in acetone containing 0.019% of a mixture of Triton 152 and Triton 172 (1:3, v/v) and 0.4% DMSO to achieve the desired concentration. Dosages were serially diluted using this same formulation. For treatments containing amitraz, amitraz was added to the above solution to achieve the desired concentration. 0.5 ml of the solution was used to treat 20 ml scintillation vials containing a 0.125″ hole in the cap. […] Filter papers treated with this same solution were placed in the cap and bottom of the treated vial. Vials were capped and held over night at 24° C. and 95% RH after which 10 adult Rhipicephalus sanguineus ticks were placed into each vial. The vials were held under the same conditions mentioned above for the duration of the test. […]
# fleas = assay: Efficacy of combination of fipronil and amitraz against fleas on dogs; format: in vivo; conditions: topical
# Method: A fipronil formulation (commercial product) was prepared and stored separately from amitraz. Amitraz was formulated with the same carrier. Both parts, fipronil and amitraz in solvent(s) were stored separately and applied simultaneously. Amounts applied were calculated to keep dose at 10% (w/v) each in final formulation and 10 mg/kg BW of actives in amount applied.
# The amitraz and fipronil composition described in Example 10 were used in this study. […] Treatment was applied by parting the hair on the midline of the neck, between the base of the skull and the shoulder blades, and applying the formulation directly onto the skin.
# [3] = 4 h, read-out: 4 hour % Mortality Rep 1
# [4] = 4 h, read-out: 4 hour % Mortality Rep 2
# [5] = 4 h, read-out: 4 hour Avg. % Mortality
# [6] = 24 h, read-out: 24 hour % Mortality Rep 1
# [7] = 24 h, read-out: 24 hour % Mortality Rep 2
# [8] = 24 h, read-out: 24 hour Avg. % Mortality
# [9] = 48 h, read-out: 48 hour % Mortality Rep 1
# [10] = 48 h, read-out: 48 hour % Mortality Rep 2
# [11] = 48 h, read-out: 48 hour Avg. % Mortality
structure (smiles),measurement,setting,value
"Cc1ccc(/N=C/N(C)/C=N/c2ccc(C)cc2C)c(C)c1 [Amitraz, amitraz]",Geometric Mean of movement values for stimulated ticks,[1]; 21-22 hours post infestation,"30,300"
same,Geometric Mean of movement values for stimulated ticks,[1]; 1 hours post infestation,"56,900"
same,Geometric Mean of movement values for stimulated ticks,[1]; 4 hours post infestation,"44,300"
same,Geometric Mean of movement values for stimulated ticks,[1]; 18 hours post infestation,"33,200"
same,Geometric Mean of movement values for stimulated ticks,[1]; 24 hours post infestation,"34,300"
same,motility of ticks over time,[1],increase in motility
same,mortality at 3.13 ppm,[2]; [3],0%
same,mortality at 6.25 ppm,[2]; [3],0%
same,mortality at 12.5 ppm,[2]; [3],0%
same,mortality at 25 ppm,[2]; [3],0%
same,mortality at 3.13 ppm,[2]; [4],0%
same,mortality at 6.25 ppm,[2]; [4],0%
same,mortality at 12.5 ppm,[2]; [4],0%
same,mortality at 25 ppm,[2]; [4],0%
same,mortality at 3.13 ppm,[2]; [5],0%
same,mortality at 6.25 ppm,[2]; [5],0%
same,mortality at 12.5 ppm,[2]; [5],0%
same,mortality at 25 ppm,[2]; [5],0%
same,mortality at 3.13 ppm,[2]; [6],0%
same,mortality at 6.25 ppm,[2]; [6],0%
same,mortality at 12.5 ppm,[2]; [6],0%
same,mortality at 25 ppm,[2]; [6],0%
same,mortality at 3.13 ppm,[2]; [7],0%
same,mortality at 6.25 ppm,[2]; [7],0%
same,mortality at 12.5 ppm,[2]; [7],0%
same,mortality at 25 ppm,[2]; [7],0%
same,mortality at 3.13 ppm,[2]; [8],0%
same,mortality at 6.25 ppm,[2]; [8],0%
same,mortality at 12.5 ppm,[2]; [8],0%
same,mortality at 25 ppm,[2]; [8],0%
same,mortality at 3.13 ppm,[2]; [9],0%
same,mortality at 6.25 ppm,[2]; [9],0%
same,mortality at 12.5 ppm,[2]; [9],0%
same,mortality at 25 ppm,[2]; [9],0%
same,mortality at 3.13 ppm,[2]; [10],0%
same,mortality at 6.25 ppm,[2]; [10],0%
same,mortality at 12.5 ppm,[2]; [10],0%
same,mortality at 25 ppm,[2]; [10],0%
same,mortality at 3.13 ppm,[2]; [11],0%
same,mortality at 6.25 ppm,[2]; [11],0%
same,mortality at 12.5 ppm,[2]; [11],0%
same,mortality at 25 ppm,[2]; [11],0%
same,Efficacy against fleas,fleas; 2 days after treatment,14.3%
same,Efficacy against fleas,fleas; 16 days after treatment,12.4%
same,Efficacy against fleas,fleas; 23 days after treatment,16.3%
same,Efficacy against fleas,fleas; 30 days after treatment,20.2%
same,Efficacy against fleas,fleas; 37 days after treatment,32.5%
same,Efficacy against fleas,fleas; 44 days after treatment,25.9%
"N#Cc1nn(-c2c(Cl)cc(C(F)(F)F)cc2Cl)c(N)c1[S+]([O-])C(F)(F)F (stereo not drawn) [fipronil, 5-amino-3-cyano-1-(2,6-dichloro-4-trifluoromethylphenyl)-4-trifluoromethylsulfinylpyrazole]",Geometric Mean of movement values for stimulated ticks,[1]; 21-22 hours post infestation,"21,200"
same,Geometric Mean of movement values for stimulated ticks,[1]; 1 hours post infestation,"51,000"
same,Geometric Mean of movement values for stimulated ticks,[1]; 4 hours post infestation,"29,000"
same,Geometric Mean of movement values for stimulated ticks,[1]; 18 hours post infestation,"17,400"
same,Geometric Mean of movement values for stimulated ticks,[1]; 24 hours post infestation,"19,700"
same,motility of ticks over time,[1],reduction in motility
same,mortality at 0.025 ppm,[2]; [3],0%
same,mortality at 0.1 ppm,[2]; [3],0%
same,mortality at 0.4 ppm,[2]; [3],0%
same,mortality at 1.6 ppm,[2]; [3],0%
same,mortality at 6.25 ppm,[2]; [3],10%
same,mortality at 25 ppm,[2]; [3],80%
same,mortality at 0.025 ppm,[2]; [4],0%
same,mortality at 0.1 ppm,[2]; [4],0%
same,mortality at 0.4 ppm,[2]; [4],0%
same,mortality at 1.6 ppm,[2]; [4],0%
same,mortality at 6.25 ppm,[2]; [4],20%
same,mortality at 25 ppm,[2]; [4],90%
same,mortality at 0.025 ppm,[2]; [5],0%
same,mortality at 0.1 ppm,[2]; [5],0%
same,mortality at 0.4 ppm,[2]; [5],0%
same,mortality at 1.6 ppm,[2]; [5],0%
same,mortality at 6.25 ppm,[2]; [5],15%
same,mortality at 25 ppm,[2]; [5],85%
same,mortality at 0.025 ppm,[2]; [6],0%
same,mortality at 0.1 ppm,[2]; [6],0%
same,mortality at 0.4 ppm,[2]; [6],0%
same,mortality at 6.25 ppm,[2]; [6],100%
same,mortality at 25 ppm,[2]; [6],100%
same,mortality at 0.025 ppm,[2]; [7],0%
same,mortality at 0.1 ppm,[2]; [7],0%
same,mortality at 0.4 ppm,[2]; [7],0%
same,mortality at 1.6 ppm,[2]; [7],30%
same,mortality at 6.25 ppm,[2]; [7],90%
same,mortality at 25 ppm,[2]; [7],100%
same,mortality at 0.025 ppm,[2]; [8],0%
same,mortality at 0.1 ppm,[2]; [8],0%
same,mortality at 0.4 ppm,[2]; [8],0%
same,mortality at 1.6 ppm,[2]; [8],50%
same,mortality at 6.25 ppm,[2]; [8],95%
same,mortality at 25 ppm,[2]; [8],100%
same,mortality at 0.025 ppm,[2]; [9],0%
same,mortality at 0.1 ppm,[2]; [9],0%
same,mortality at 0.4 ppm,[2]; [9],0%
same,mortality at 1.6 ppm,[2]; [9],100%
same,mortality at 6.25 ppm,[2]; [9],100%
same,mortality at 25 ppm,[2]; [9],100%
same,mortality at 0.025 ppm,[2]; [10],0%
same,mortality at 0.1 ppm,[2]; [10],0%
same,mortality at 0.4 ppm,[2]; [10],0%
same,mortality at 1.6 ppm,[2]; [10],70%
same,mortality at 6.25 ppm,[2]; [10],90%
same,mortality at 25 ppm,[2]; [10],100%
same,mortality at 0.025 ppm,[2]; [11],0%
same,mortality at 0.1 ppm,[2]; [11],0%
same,mortality at 0.4 ppm,[2]; [11],0%
same,mortality at 1.6 ppm,[2]; [11],85%
same,mortality at 6.25 ppm,[2]; [11],95%
same,mortality at 25 ppm,[2]; [11],100%
same,Efficacy against fleas,fleas; 2 days after treatment,100%
same,Efficacy against fleas,fleas; 16 days after treatment,100%
same,Efficacy against fleas,fleas; 23 days after treatment,100%
same,Efficacy against fleas,fleas; 30 days after treatment,94.4%
same,Efficacy against fleas,fleas; 37 days after treatment,63.4%
same,Efficacy against fleas,fleas; 44 days after treatment,55.9%
same,Efficacy against fleas,fleas; 51 days after treatment,74.7%
